{"source": "patent US20190071670A1", "about": "“Methods Of Treatment For Alpha-1 Antitrypsin Deficiency” (Arrowhead Pharmaceuticals, Inc., priority 2016, published 2019)", "key": {"hAAT mRNA": {"test_system": "hAAT mRNA", "assay": "Liver hAAT mRNA levels in PiZ mice (RT-qPCR)", "format": "in vivo, human (expressed in PiZ mice)", "settings": "for hAAT mRNA in liver reduced: 6 month old female PiZ mice, single IV 8 mg/kg + 8 mg/kg MLP delivery polymer; for Average relative mRNA level (hAAT) / hAAT mRNA level: PiZ mice liver; for Average relative mRNA level (hAAT): one injection 8 mg/kg + 8 mg/kg MLP delivery polymer; for hAAT mRNA level: single IV 6 mg/kg with 6 mg/kg MLP delivery polymer, relative to mouse β-actin mRNA", "experimental": "Compositions comprising double-stranded AAT expression-inhibiting oligomeric compounds were administered to PiZ mice. PiZ mice harbor the human PiZ AAT mutant allele and model human AATD (Carlson et al. Journal of Clinical Investigation 1989). […] Liver hAAT mRNA production was measured at days 3 and 10. Reduced mRNA levels correlated with decreased serum hAAT protein levels, except that mRNA reduction preceded protein reduction by a few days. The level of liver hAAT mRNA production was measured at day 3 and day 10 following a single dose of AAT RNAi agent with MLP delivery polymer in PiZ mice. A sustained decrease in liver hAAT mRNA levels was observed that correlated with the decrease observed in serum hAAT protein levels.\nHuman AAT protein levels in serum were monitored for 29 days. At the indicated times, blood samples were collected and assayed for hAAT by ELISA. Day 1 samples were collected prior to trigger administration. For mRNA analysis, 3-4 mice were euthanized at each of days 3, 8, 15, 22, and 29. For euthanized mice, cardiac stick were performed for serum isolation for AAT ELISA (200 μl serum). Half of the left lateral liver lobe was collected and snap-freeze in liquid nitrogen for RNA isolation. The remainder of the left lobes were embedded into paraffin blocks for PAS-D staining with hematoxylin as counter-stain. Serum hAAT levels in mice given AAT Duplex Pair SEQ ID NO: 5/6 were 95% reduced on day 8 and remained reduced to day 29, at which time they were 79% reduced. Mice given AAT Duplex Pair SEQ ID NO: 5/6 were euthanized at either day 3, 8, 15, 22 or 29. Mice given saline or Luciferase siRNA control (SEQ ID 7/8) were euthanized on day 29. Levels of hAAT mRNA in the livers were measured by RT-qPCR. The hAAT mRNA in mice given AAT Duplex Pair SEQ ID NO: 5/6 was reduced by 97% on day 3 and remained reduced on day 29, at which time levels were 56% reduced. The size of the globules and the area of the liver covered by globules was digitally quantitated from liver specimens stained with PAS-D. Duplex Pair SEQ ID NO: 5/6 treated mice had 70% smaller globules at day 15 and 62% smaller globules at day 29. The area of the liver covered with globules was 83% reduced on day 15 and 72% reduced on day 29 (FIG. 5)."}, "AAT": {"test_system": "AAT", "settings": "cynomolgus macaque", "experimental": "MLP delivery polymer and Duplex Pair SEQ ID NO: 5/6 (AAT RNAi agent) were made and combined in a pharmaceutically acceptable buffer. On day 1, cynomolgus macaque (Macaca fascicularis) primates (male and female, 3 to 9 kg) were co-injected with MLP delivery polymer and Duplex Pair SEQ ID NO: 5/6 at different dose combinations. The dose combinations injected were: 2.0 mg/kg MLP delivery polymer+4.0 AAT RNAi agent (n=3), 3 mg/kg MLP delivery polymer+1.5 mg/kg AAT RNAi agent (n=2), 3.0 mg/kg MLP delivery polymer+3.0 mg/kg AAT RNAi agent (n=3), 3.0 mg/kg MLP delivery polymer+6.0 mg/kg AAT RNAi agent (n=2), 6.0 mg/kg MLP delivery polymer+12 mg/kg AAT RNAi trigger (n=3) ([…] conversion factor used to determine RNAi agent concentration) and 12 mg/kg MLP delivery polymer+6.0 mg/kg AAT RNAi agent (n=12). For each injection the MLP delivery polymer+AAT RNAi agent (2 ml/kg) was injected into the saphenous vein using a 22 to 25 gauge intravenous catheter. At the indicated time points, blood samples were drawn and analyzed for AAT and toxicity markers. Blood was collected from the femoral vein and primates were fasted overnight before all blood collections. Blood tests for blood urea nitrogen (BUN), alanine transaminase (ALT), aspartate aminotransferase (AST), and creatinine were performed on an automated chemistry analyzer at Meriter laboratories or BASi. AAT levels were determined on a Cobas Integra 400 (Roche Diagnostics) according to the manufacturer's recommendations.\nCynomolgus macaque primates were given five doses of AAT RNAi trigger+MLP delivery polymer at six week intervals. Each dose contained MLP delivery polymer and Duplex Pair SEQ ID NO: 5/6 (AAT RNAi agent) at a 1:2 weight to weight ratio of the MLP to RNAi agent. The first injection was on day 1. The dose combinations injected were: 2.0 mg/kg MLP delivery polymer+4.0 AAT RNAi agent (n=2) and 3 mg/kg MLP delivery polymer+6 mg/kg AAT RNAi agent (n=2). Blood was collected at intervals throughout the study and AAT levels were measured from the serum as described."}}, "note": "Where two headings read alike, the source gives them in different places."}
{"substance": "Duplex Pair SEQ ID NO: 5/6: double-stranded AAT RNAi agent: modified antisense strand SEQ ID NO: 5 annealed to Chol-TEG sense strand SEQ ID NO: 6 (antisense TGGAACUUGGUGAUGAUAUTT; sense UAUAUAUCAUCACCAAGUUCCAT; Chol-TEG on sense strand; chemical modifications; antisense strand of dsRNA; modified_base 7 /mod_base = “2′-3′ seco corresponding nucleotide”; modified_base 2,4,6,8,10,12,14,16,18 /mod_base = “2′-deoxy-2′-fluoro corresponding nucleoside”; modified_base 3,5,9,11,13,15,17,19 /mod_base = “2′-O-methyl corresponding nucleoside”; modified_base 21 /mod_base = “5′-phosphorothioate corresponding nucleotide”; sense strand of dsRNA; modified_base 2 /mod_base = “2′-hydroxy corresponding nucleoside”; modified_base 4,6,8,10,12,14,16,18,20,22 /mod_base = “2′-deoxy-2′-fluoro corresponding nucleoside”; …)", "values": [{"measurement": "hAAT mRNA in liver reduced", "setting": "hAAT mRNA; day 3", "value": 97, "unit": "%"}, {"measurement": "hAAT mRNA in liver reduced", "setting": "hAAT mRNA; day 29", "value": 56, "unit": "%"}, {"measurement": "Average relative mRNA level (hAAT)", "setting": "hAAT mRNA; Day 3", "value": 0.030}, {"measurement": "Average relative mRNA level (hAAT)", "setting": "hAAT mRNA; Day 8", "value": 0.032}, {"measurement": "Average relative mRNA level (hAAT)", "setting": "hAAT mRNA; Day 15", "value": 0.158}, {"measurement": "Average relative mRNA level (hAAT)", "setting": "hAAT mRNA; Day 22", "value": 0.221}, {"measurement": "Average relative mRNA level (hAAT)", "setting": "hAAT mRNA; Day 29", "value": 0.439}, {"measurement": "hAAT mRNA level", "setting": "hAAT mRNA; day 3", "value": "0.025 ± 0.02"}, {"measurement": "hAAT mRNA level", "setting": "hAAT mRNA; day 10", "value": "0.055 ± 0.02"}, {"measurement": "Serum AAT levels measured six weeks after each treatment", "setting": "AAT; 2.0 mg/kg MLP delivery polymer + 4.0 AAT RNAi agent, five doses at six week intervals", "value": "rebounded less with each additional treatment"}, {"measurement": "Serum AAT reduced", "setting": "AAT; 2.0 mg/kg MLP delivery polymer + 4.0 AAT RNAi agent, six week intervals, following the fourth treatment", "value": 85, "unit": "%"}, {"measurement": "Serum AAT reduced", "setting": "AAT; 2.0 mg/kg MLP delivery polymer + 4.0 AAT RNAi agent, following the first treatment", "value": 80, "unit": "%"}, {"measurement": "knockdown of AAT", "setting": "AAT; all dose combinations with MLP delivery polymer", "value": "Significant knockdown"}, {"measurement": "Percent AAT Knockdown in NHPs", "setting": "AAT; co-injection MLP 2.0 mg/kg + SEQ ID 5/6 4.0 mg/kg on day 1, Day 2", "value": 11, "unit": "%"}, {"measurement": "Percent AAT Knockdown in NHPs", "setting": "AAT; co-injection MLP 2.0 mg/kg + SEQ ID 5/6 4.0 mg/kg on day 1, Day 3", "value": 27, "unit": "%"}, {"measurement": "Percent AAT Knockdown in NHPs", "setting": "AAT; co-injection MLP 2.0 mg/kg + SEQ ID 5/6 4.0 mg/kg on day 1, Day 8", "value": 63, "unit": "%"}, {"measurement": "Percent AAT Knockdown in NHPs", "setting": "AAT; co-injection MLP 2.0 mg/kg + SEQ ID 5/6 4.0 mg/kg on day 1, Day 11", "value": 73, "unit": "%"}, {"measurement": "Percent AAT Knockdown in NHPs", "setting": "AAT; co-injection MLP 2.0 mg/kg + SEQ ID 5/6 4.0 mg/kg on day 1, Day 15", "value": 81, "unit": "%"}, {"measurement": "Percent AAT Knockdown in NHPs", "setting": "AAT; co-injection MLP 2.0 mg/kg + SEQ ID 5/6 4.0 mg/kg on day 1, Day 22", "value": 85, "unit": "%"}, {"measurement": "Percent AAT Knockdown in NHPs", "setting": "AAT; co-injection MLP 2.0 mg/kg + SEQ ID 5/6 4.0 mg/kg on day 1, Day 29", "value": 80, "unit": "%"}, {"measurement": "Percent AAT Knockdown in NHPs", "setting": "AAT; co-injection MLP 2.0 mg/kg + SEQ ID 5/6 4.0 mg/kg on day 1, Pretest", "value": 0, "unit": "%"}, {"measurement": "Percent AAT Knockdown in NHPs", "setting": "AAT; co-injection MLP 3.0 mg/kg + SEQ ID 5/6 1.5 mg/kg on day 1, Day 2", "value": 16, "unit": "%"}, {"measurement": "Percent AAT Knockdown in NHPs", "setting": "AAT; co-injection MLP 3.0 mg/kg + SEQ ID 5/6 1.5 mg/kg on day 1, Day 3", "value": 30, "unit": "%"}, {"measurement": "Percent AAT Knockdown in NHPs", "setting": "AAT; co-injection MLP 3.0 mg/kg + SEQ ID 5/6 1.5 mg/kg on day 1, Day 8", "value": 59, "unit": "%"}, {"measurement": "Percent AAT Knockdown in NHPs", "setting": "AAT; co-injection MLP 3.0 mg/kg + SEQ ID 5/6 1.5 mg/kg on day 1, Day 11", "value": 70, "unit": "%"}, {"measurement": "Percent AAT Knockdown in NHPs", "setting": "AAT; co-injection MLP 3.0 mg/kg + SEQ ID 5/6 1.5 mg/kg on day 1, Day 15", "value": 74, "unit": "%"}, {"measurement": "Percent AAT Knockdown in NHPs", "setting": "AAT; co-injection MLP 3.0 mg/kg + SEQ ID 5/6 1.5 mg/kg on day 1, Day 22", "value": 76, "unit": "%"}, {"measurement": "Percent AAT Knockdown in NHPs", "setting": "AAT; co-injection MLP 3.0 mg/kg + SEQ ID 5/6 1.5 mg/kg on day 1, Day 29", "value": 74, "unit": "%"}, {"measurement": "Percent AAT Knockdown in NHPs", "setting": "AAT; co-injection MLP 3.0 mg/kg + SEQ ID 5/6 1.5 mg/kg on day 1, Day 36", "value": 70, "unit": "%"}, {"measurement": "Percent AAT Knockdown in NHPs", "setting": "AAT; co-injection MLP 3.0 mg/kg + SEQ ID 5/6 1.5 mg/kg on day 1, Day 43", "value": 63, "unit": "%"}]}
